This is an account of results in patent US11229642B2, “Composition and method for reducing neutropenia” (BeyondSpring Pharmaceuticals, Inc., priority 2016, dated 2022).

SMILES strings stand for the structures. Read-outs that look alike come from different tables or passages of the source. A value given as a limit tells only on which side of the number the result lay.

Data set [1] has as its system cis-platin induced neutropenia. It is filed as in vivo, Male Sprague-Dawley rats. From the text:
Male Sprague-Dawley rats were first treated with cis-platin or vehicle saline (control). […] Each test group included 6 rats.
The ANC decreased following cisplatin administration.

In data set [2] the test system is cyclophosphamide-induced neutropenia. To be noted: for ANCs (Mean ± SD): Day −1 (pre-dose baseline), N = 5 rats per group.
Protocol: The control sample contained 7.1% Tween 80 (v/v), 25.5% Propylene glycol (v/v), and 67.4% D5W (5% dextrose in water) (v/v). Each test group included 15 rats.
Blood collection was performed for absolute neutrophil counts in blood samples collected at Day −1 (pre-dose), Day 2 (24 h), Day 3 (48 h), Day 10 (9 days) and Day 15 (14 days).
These were expressed as a percentage of the control level on Day 3.
The subject of data set [3] is doxorubicin induced neutropenia. Nature of the data set: Example 3: ANC in doxorubicin induced neutropenia. The data set is classed as in vivo, Male Sprague-Dawley rats. To be noted: for ANC level expressed as Percent Naïve Group (% Naïve): doxorubicin 3 mg/kg, plinabulin 7.5 mg/kg in the combination. Here is the method: Male Sprague-Dawley rats were first treated with doxorubicin or vehicle saline (control). […] Each test group included 6 rats. The doxorubicin was administered intravenously, and plinabulin was administered through intraperitoneal injection.

Data set [4] relates to neutropenia caused by cyclophosphamide. The data set is described as follows: Example 1: neutrophil count after cyclophosphamide, plinabulin or the combination. The data set is classed as in vivo, male Sprague-Dawley rats. To be noted: all rats, Days −1, 2, 3 and 10; FIG. 3. Here is the method: Fifteen rats each were placed in 4 treatment groups according to Table 1. The indicated doses were administered through intraperitoneal injection on Day 1 with Administration 2 being given 1 hour following Administration 1.
D5W is 5% dextrose in water for injection. For groups that included administration of plinabulin, plinabulin is first dissolved in the Tween 80-PG mixture and then diluted with D5W.
The animals were randomized based on body weight and assigned to groups. Before the initiation of dosing, any assigned animals considered unsuitable for use in the study were replaced by alternate animals obtained from the same shipment and maintained under the same environmental conditions.
Blood was collected by jugular venipuncture for Day −1 bleeds and terminally via abdominal aorta under anesthesia for Day 2 (5 rats per Group i.e. total 20 rats), Day 3 (5 rats per Group i.e. total 20 rats) and Day 10 (5 rats per Group i.e. total 20 rats). After collection, the samples were tested for total and differential cell counts. Five rats per group were terminated on Days 2, 3, and 10. Animals were anesthetized with isoflurane (1-5%) and ˜1-2.0 mL of blood will be collected via abdominal aorta. After collection, 0.3 mL was transferred to EDTA tubes and analyzed for total and differential cell counts. […]

For data set [5], the system named is topotecan induced neutropenia. The data set is described as follows: Example 5: ANC in topotecan induced neutropenia. The data set is classed as in vivo, adult male Sprague-Dawley rats. As for the experimental part: Topotecan (0.25 or 1.0 mg/kg IV) was administered to adult male Sprague-Dawley rats on Days 1, 3 and 5. Topotecan was administered by intravenous infusion over a period of 30 minutes using a syringe infusion pump and sterile disposable syringes at a dose volume of 10 mL/kg.
Plinabulin (3.75 mg/kg, IP) was dosed 1 hour post topotecan following each topotecan dose. Plinabulin (7.5 mg/kg IP) was dosed 1 hour after the topotecan dose (0.25 mg/kg) on Day 1 only.
Blood collection was performed Days −2, 0, 2, 4, 6, 7, 8, 9, 10 for the pilot and Days −2, 0, 2, 3, 4, 5, 6, 7, 8, 10, 15 for the main study. Blood samples collected on day 3 were analyzed for total and differential blood cell counts.

For the compound `N.N.[Cl][Pt][Cl]` [Cisplatin, reference compound], the ANCs in data set [1] (Day 3 (cisplatin ANC nadir), cisplatin 6.5 mg/kg alone) is recorded as 0.93 ± 0.28 10^3 Cells/μL; in data set [1] (Day −1 (predose), cisplatin 6.5 mg/kg group) it was 2.03 ± 0.81 10^3 Cells/μL. Also, the “Day 3 ANCs Expressed as Percent of Baseline (Day −1)” value in data set [1] (cisplatin 6.5 mg/kg alone) is 45.8%.
With `O=P1(N(CCCl)CCCl)NCCCO1` (centres unmarked) [Cyclophosphamide], the “ANCs (Mean ± SD)” value in data set [2] is 1.68 ± 0.19 10^3 Cells/μL. Also, the induction of neutropenia result in data set [2] (single intra-peritoneal injection of cyclophosphamide) is listed as “induced neutropenia in rats at around 48 h”.
Turning to `COc1cccc2c1C(=O)c1c(O)c3c(c(O)c1C2=O)C[C@@](O)(C(=O)CO)C[C@@H]3O[C@H]1C[C@H](N)[C@H](O)[C@H](C)O1` [Doxorubicin], the “time after administration at which neutropenia effect of doxorubicin was seen” value in data set [3] (ANC as percentage of naïve animals, severity increased until Day 5) is no more than 24 h. Besides, the “ANC level, Mean” value in data set [3] (Day 2, doxorubicin 3.0 mg/kg IV alone) is given as 4.37 ± 10^3/μL; in data set [3] (Day 3, doxorubicin 3.0 mg/kg IV alone), 0.88 ± 10^3/μL; in data set [3] (Day 4, doxorubicin 3.0 mg/kg IV alone), 1.02 ± 10^3/μL; in data set [3] (Day 5, doxorubicin 3.0 mg/kg IV alone) it was 0.65 ± 10^3/μL; in data set [3] (Day 8, doxorubicin 3.0 mg/kg IV alone), 0.97 ± 10^3/μL; in data set [3] (Day −1 (pre-dose), doxorubicin 3.0 mg/kg IV group), 1.79 ± 10^3/μL. The “ANC level expressed as Percent Naïve Group (% Naïve)” value was 52.6% in data set [3] (Day 2); 50.9% in data set [3] (Day 3); 30.8% in data set [3] (Day 4); 19.2% in data set [3] (Day 5); 32.3% in data set [3] (Day 8). Further, the induction of neutropenia entry in data set [3] (doxorubicin 3.0 mg/kg) is “induced a long-lasting neutropenia”. Further, the “duration of ANC decrease following doxorubicin administration” value in data set [3] (doxorubicin 3 mg/kg IV single dose) is recorded as “at least 8 days”.
With `CC(C)(C)c1[nH]cnc1/C=c1\[nH]c(=O)/c(=C/c2ccccc2)[nH]c1=O` [Plinabulin, (3Z,6Z)-3-Benzylidene-6-{[5-(2-methyl-2-propanyl)-1H-imidazol-4-yl]methylene}-2,5-piperazinedione], the “reduction of neutropenia caused by cyclophosphamide, time course” value in data set [4] is given as “reduced the neutropenia caused by cyclophosphamide”. Also, the “ANC level, Mean” value in data set [3] (Day 2, plinabulin 7.5 mg/kg IP alone) is given as 5.24 ± 10^3/μL; in data set [3] (Day 3, plinabulin 7.5 mg/kg IP alone) it was 1.98 ± 10^3/μL; in data set [3] (Day 4, plinabulin 7.5 mg/kg IP alone) it was 2.17 ± 10^3/μL; in data set [3] (Day 5, plinabulin 7.5 mg/kg IP alone) it was 2.13 ± 10^3/μL; in data set [3] (Day 8, plinabulin 7.5 mg/kg IP alone) it was 3.18 ± 10^3/μL; in data set [3] (Day −1 (pre-dose), plinabulin 7.5 mg/kg IP group), 2.02 ± 10^3/μL. Moreover, in data set [3] (plinabulin 7.5 mg/kg IP alone, all time points), the “ANC in plinabulin only treated rats vs naïve animals” value is reported as “not statistically different from naïve animals at any time point”. In addition, the “effect of plinabulin on doxorubicin effect (ANC), Days 2 and 3” value in data set [3] (plinabulin 7.5 mg/kg, Days 2 and 3 post dose) was “significantly diminished the effect of doxorubicin”. Moreover, the “effect of plinabulin on doxorubicin-induced neutropenia, days 5 and 8” value in data set [3] (plinabulin 7.5 mg/kg, days 5 and 8) is “ameliorated the doxorubicin-induced neutropenia to a lesser degree”. The “effect of plinabulin on doxorubicin-induced neutropenia” value in data set [3] (plinabulin 3.5 and 7.5 mg/kg IP, one hour after doxorubicin) is on record as “significantly reduced the doxorubicin-induced neutropenia”. Also, the ANCs in data set [1] (Day 3, plinabulin 4.9 mg/kg alone) is recorded as 2.42 ± 0.73 10^3 Cells/μL; in data set [1] (Day 3, plinabulin 7.5 mg/kg alone) it was 4.55 ± 1.41 10^3 Cells/μL; in data set [1] (Day −1 (predose), plinabulin 4.9 mg/kg group), 1.98 ± 0.47 10^3 Cells/μL; in data set [1] (Day −1 (predose), plinabulin 7.5 mg/kg group), 2.12 ± 0.25 10^3 Cells/μL. Also, in data set [1] (plinabulin 2.3 mg/kg, 4.9 mg/kg and 7.5 mg/kg one hour post cisplatin, Day 3), the “ANC levels vs predose levels, plinabulin one hour post cisplatin” value is listed as “not significantly different from the predose levels”. For the same compound, the “Day 3 ANCs Expressed as Percent of Baseline (Day −1)” value in data set [1] (plinabulin 4.9 mg/kg alone) turned out to be 122.2%; in data set [1] (plinabulin 7.5 mg/kg alone), 214.6%. For the same compound, the “change of ANC levels by plinabulin alone” value in data set [1] (plinabulin 4.9 mg/kg alone, Day 3 vs predose) was “did not change ANC levels”. For the same compound, in data set [5] (plinabulin 3.75 and 7.5 mg/kg IP, one hour after topotecan), the “effect of plinabulin on topotecan-induced neutropenia” value is reported as “significantly reduced the topotecan-induced neutropenia”. In addition, in data set [2], the “ANCs (Mean ± SD)” value is 1.69 ± 0.21 10^3 Cells/μL.
On to `CC[C@@]1(O)C(=O)OCc2c1cc1n(c2=O)Cc2cc3c(CN(C)C)c(O)ccc3nc2-1` [topotecan, reference compound], for which, in data set [5] (topotecan 1 or 0.25 mg/kg IV on Days 1, 3 and 5, FIGS. 11A, 11B), the induction of neutropenia entry is on record as “induced a long-lasting neutropenia”.
